Assay results taken from patent US12336981B2, “Compounds and compositions for the inhibition of NAMPT” (Valo Health, Inc., priority 2010, dated 2025).
Read-outs that look alike come from different tables or passages of the source.

Experiments:
[1] = biological target: T1, NAMPT (Homo sapiens, UniProt P43490); assay: Biochemical inhibition assay: NAMPT enzymatic reaction, NMN quantified by mass spectrometry; settings: read-out: Biochem IC50
T1 construct: His tag; host or cells: E. coli
Procedure, shortened: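 Inhibition of E. coli-expressed His-tagged human NAMPT, measured as NMN formation by mass spectrometry after a 30 min room-temperature reaction containing 1 μM NAM, 100 μM PRPP and 2.5 mM ATP.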

[2] = system: A2780 cells; assay: In-vitro cell proliferation assay (SRB), A2780 cells; format: cell-based; settings: Homo sapiens, A2780, 72 h, A2780 cells, 72 hours, read-out: A2780 IC50
Procedure, shortened: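 Growth inhibition was derived from background-corrected SRB absorbance (570 nm), measured on cells fixed in 6% TCA after three days of compound treatment under 5% CO2 at 37° C.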

T1 sequence (P43490 whole entry): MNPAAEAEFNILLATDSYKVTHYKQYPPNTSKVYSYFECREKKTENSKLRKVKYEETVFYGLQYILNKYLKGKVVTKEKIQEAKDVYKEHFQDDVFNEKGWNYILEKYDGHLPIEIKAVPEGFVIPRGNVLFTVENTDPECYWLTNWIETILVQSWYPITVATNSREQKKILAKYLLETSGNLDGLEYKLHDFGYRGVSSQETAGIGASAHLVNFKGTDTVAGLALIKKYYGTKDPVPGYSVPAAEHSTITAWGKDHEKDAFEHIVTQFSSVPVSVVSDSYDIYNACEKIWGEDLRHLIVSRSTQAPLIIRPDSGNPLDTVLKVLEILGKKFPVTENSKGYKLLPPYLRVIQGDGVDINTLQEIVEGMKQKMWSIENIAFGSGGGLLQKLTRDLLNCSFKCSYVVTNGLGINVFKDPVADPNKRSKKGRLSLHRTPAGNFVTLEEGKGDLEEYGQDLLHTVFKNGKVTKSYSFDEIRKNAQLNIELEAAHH

SMILES | IC50 ([1]; NAMPT enzymatic assay) [nM] | IC50 ([2]; SRB) [nM] | IC50 ([1]; NAMPT enzymatic reaction) [nM] | IC50 ([2]; SRB assay) [nM]
CCCn1cc(S(=O)(=O)c2ccc(CNC(=O)c3cc4cnccc4[nH]3)cc2)cn1 [N-{[4-(1-propyl-1H-pyrazole-4-sulfonyl)phenyl]methyl}-1H-pyrrolo[3,2-c]pyridine-2-carboxamide] | 14.9 | 5.9 | – | –
CCCn1cc(S(=O)(=O)c2ccc(CNC(=O)c3ccc4nccn4c3)cc2)cn1 [N-{[4-(1-propyl-1H-pyrazole-4-sulfonyl)phenyl]methyl}imidazo[1,2-a]pyridine-6-carboxamide] | 4.9 | 5.2 | – | –
CCCn1cc(S(=O)(=O)c2ccc(CNC(=O)c3cc4ccncc4s3)cc2)cn1 [N-{[4-(1-propyl-1H-pyrazole-4-sulfonyl)phenyl]methyl}thieno[2,3-c]pyridine-2-carboxamide] | 1.9 | 1.6 | – | –
O=C(NCc1ccc(S(=O)(=O)c2cccc3cc[nH]c23)cc1)c1cc2ccncc2s1 [N-{[4-(1H-indole-7-sulfonyl)phenyl]methyl}thieno[2,3-c]pyridine-2-carboxamide] | – | – | 3 | 2.7
O=C(NCc1ccc(S(=O)(=O)c2ccc3c(c2)OCCO3)cc1)c1cc2ccncc2o1 [N-{[4-(2,3-dihydro-1,4-benzodioxine-6-sulfonyl)phenyl]methyl}furo[2,3-c]pyridine-2-carboxamide] | 5.5 | 6.2 | – | –
O=C(NCc1ccc(S(=O)(=O)c2ccc3c(c2)OCCO3)cc1)c1cnc2nccn2c1 [N-{[4-(2,3-dihydro-1,4-benzodioxine-6-sulfonyl)phenyl]methyl}imidazo[1,2-a]pyrimidine-6-carboxamide] | 0.2 | 0.5 | – | –
O=C(NCc1ccc(S(=O)(=O)c2ccc3c(c2)OCCO3)cc1)c1cc2ccncc2s1 [N-{[4-(2,3-dihydro-1,4-benzodioxine-6-sulfonyl)phenyl]methyl}thieno[2,3-c]pyridine-2-carboxamide] | – | – | 4 | 2.7
O=C(NCc1ccc(S(=O)(=O)c2cccc3c2OCC3)cc1)c1cc2cnccc2[nH]1 [N-{[4-(2,3-dihydro-1-benzofuran-7-sulfonyl)phenyl]methyl}-1H-pyrrolo[3,2-c]pyridine-2-carboxamide] | 14 | 3.8 | – | –
O=C(NCc1ccc(S(=O)(=O)c2cccc3c2OCC3)cc1)c1cc2ccncc2o1 [N-{[4-(2,3-dihydro-1-benzofuran-7-sulfonyl)phenyl]methyl}furo[2,3-c]pyridine-2-carboxamide] | 6 | 7.1 | – | –
O=C(NCc1ccc(S(=O)(=O)c2cccc3c2OCC3)cc1)c1ccc2nccn2c1 [N-{[4-(2,3-dihydro-1-benzofuran-7-sulfonyl)phenyl]methyl}imidazo[1,2-a]pyridine-6-carboxamide] | 12.5 | 6.4 | – | –
O=C(NCc1ccc(S(=O)(=O)c2cccc3c2OCC3)cc1)c1cnc2nccn2c1 [N-{[4-(2,3-dihydro-1-benzofuran-7-sulfonyl)phenyl]methyl}imidazo[1,2-a]pyrimidine-6-carboxamide] | 2.1 | 25.8 | – | –
O=C(NCc1ccc(S(=O)(=O)c2cccc3c2OCC3)cc1)c1cc2ccncc2s1 [N-{[4-(2,3-dihydro-1-benzofuran-7-sulfonyl)phenyl]methyl}thieno[2,3-c]pyridine-2-carboxamide] | 2.2 | 3 | – | –
COc1ccc(S(=O)(=O)c2ccc(CNC(=O)c3cnc4[nH]ncc4c3)cc2)c(OC)n1 [N-{[4-(2,6-dimethoxypyridine-3-sulfonyl)phenyl]methyl}-1H-pyrazolo[3,4-b]pyridine-5-carboxamide] | 30.7 | 2 | – | –
COc1ccc(S(=O)(=O)c2ccc(CNC(=O)c3cc4ccncc4o3)cc2)c(OC)n1 [N-{[4-(2,6-dimethoxypyridine-3-sulfonyl)phenyl]methyl}furo[2,3-c]pyridine-2-carboxamide] | 6.6 | 11 | – | –
COc1ccc(S(=O)(=O)c2ccc(CNC(=O)c3ccc4nccn4c3)cc2)c(OC)n1 [N-{[4-(2,6-dimethoxypyridine-3-sulfonyl)phenyl]methyl}imidazo[1,2-a]pyridine-6-carboxamide] | 43.3 | 9.2 | – | –
Cc1nc(S(=O)(=O)c2ccc(CNC(=O)c3cnc4[nH]ncc4c3)cc2)cs1 [N-{[4-(2-methyl-1,3-thiazole-4-sulfonyl)phenyl]methyl}-1H-pyrazolo[3,4-b]pyridine-5-carboxamide] | 82.8 | 20.7 | – | –
Cc1nc(S(=O)(=O)c2ccc(CNC(=O)c3cc4ccncc4o3)cc2)cs1 [N-{[4-(2-methyl-1,3-thiazole-4-sulfonyl)phenyl]methyl}furo[2,3-c]pyridine-2-carboxamide] | 36.7 | 69 | – | –
Cc1nc(S(=O)(=O)c2ccc(CNC(=O)c3cnc4nccn4c3)cc2)cs1 [N-{[4-(2-methyl-1,3-thiazole-4-sulfonyl)phenyl]methyl}imidazo[1,2-a]pyrimidine-6-carboxamide] | 28.6 | 1000 to 10000 | – | –

SMILES | IC50 ([1]; NAMPT enzymatic assay) [nM] | IC50 ([2]; SRB) [nM] | IC50 ([1]; NAMPT enzymatic reaction) [nM] | IC50 ([2]; SRB assay) [nM]
Cn1cc2cc(S(=O)(=O)c3ccc(CNC(=O)c4ccc5nccn5c4)cc3)ccc2n1 [N-{[4-(2-methyl-2H-indazole-5-sulfonyl)phenyl]methyl}imidazo[1,2-a]pyridine-6-carboxamide] | 13.3 | 5.8 | – | –
Cn1cc2cc(S(=O)(=O)c3ccc(CNC(=O)c4cnc5nccn5c4)cc3)ccc2n1 [N-{[4-(2-methyl-2H-indazole-5-sulfonyl)phenyl]methyl}imidazo[1,2-a]pyrimidine-6-carboxamide] | 1.2 | 8.2 | – | –
Cn1cc2cc(S(=O)(=O)c3ccc(CNC(=O)c4cc5ccncc5s4)cc3)ccc2n1 [N-{[4-(2-methyl-2H-indazole-5-sulfonyl)phenyl]methyl}thieno[2,3-c]pyridine-2-carboxamide] | 5.5 | 3.3 | – | –
Cn1cc2ccc(S(=O)(=O)c3ccc(CNC(=O)c4cc5ccncc5o4)cc3)cc2n1 [N-{[4-(2-methyl-2H-indazole-6-sulfonyl)phenyl]methyl}furo[2,3-c]pyridine-2-carboxamide] | 3.4 | 2.8 | – | –
Cn1cc2ccc(S(=O)(=O)c3ccc(CNC(=O)c4ccc5nccn5c4)cc3)cc2n1 [N-{[4-(2-methyl-2H-indazole-6-sulfonyl)phenyl]methyl}imidazo[1,2-a]pyridine-6-carboxamide] | 1.9 | 1.7 | – | –
Cn1cc2ccc(S(=O)(=O)c3ccc(CNC(=O)c4cnc5nccn5c4)cc3)cc2n1 [N-{[4-(2-methyl-2H-indazole-6-sulfonyl)phenyl]methyl}imidazo[1,2-a]pyrimidine-6-carboxamide] | 1.2 | 6.1 | – | –
Cn1cc2ccc(S(=O)(=O)c3ccc(CNC(=O)c4cc5ccncc5s4)cc3)cc2n1 [N-{[4-(2-methyl-2H-indazole-6-sulfonyl)phenyl]methyl}thieno[2,3-c]pyridine-2-carboxamide] | 1.4 | 1.5 | – | –
Cc1ncccc1S(=O)(=O)c1ccc(CNC(=O)c2cnc3[nH]ncc3c2)cc1 [N-{[4-(2-methylpyridine-3-sulfonyl)phenyl]methyl}-1H-pyrazolo[3,4-b]pyridine-5-carboxamide] | 105 | 136 | – | –
Cc1ncccc1S(=O)(=O)c1ccc(CNC(=O)c2cc3cnccc3[nH]2)cc1 [N-{[4-(2-methylpyridine-3-sulfonyl)phenyl]methyl}-1H-pyrrolo[3,2-c]pyridine-2-carboxamide] | 180 | 24 | – | –
Cc1ncccc1S(=O)(=O)c1ccc(CNC(=O)c2cnc3nccn3c2)cc1 [N-{[4-(2-methylpyridine-3-sulfonyl)phenyl]methyl}imidazo[1,2-a]pyrimidine-6-carboxamide] | 20.8 | 100 to 1000 | – | –
Cc1ncccc1S(=O)(=O)c1ccc(CNC(=O)c2cc3ccncc3s2)cc1 [N-{[4-(2-methylpyridine-3-sulfonyl)phenyl]methyl}thieno[2,3-c]pyridine-2-carboxamide] | 15.4 | 11.9 | – | –
O=C(NCc1ccc(S(=O)(=O)c2cccc3c2OCO3)cc1)c1cnc2[nH]ncc2c1 [N-{[4-(2H-1,3-benzodioxole-4-sulfonyl)phenyl]methyl}-1H-pyrazolo[3,4-b]pyridine-5-carboxamide] | 47 | 88.4 | – | –
O=C(NCc1ccc(S(=O)(=O)c2cccc3c2OCO3)cc1)c1cc2cnccc2[nH]1 [N-{[4-(2H-1,3-benzodioxole-4-sulfonyl)phenyl]methyl}-1H-pyrrolo[3,2-c]pyridine-2-carboxamide] | 20.5 | 11.8 | – | –
O=C(NCc1ccc(S(=O)(=O)c2cccc3c2OCO3)cc1)c1cc2ccncc2o1 [N-{[4-(2H-1,3-benzodioxole-4-sulfonyl)phenyl]methyl}furo[2,3-c]pyridine-2-carboxamide] | 25.8 | 26.6 | – | –
O=C(NCc1ccc(S(=O)(=O)c2cccc3c2OCO3)cc1)c1ccc2nccn2c1 [N-{[4-(2H-1,3-benzodioxole-4-sulfonyl)phenyl]methyl}imidazo[1,2-a]pyridine-6-carboxamide] | 7.1 | 13 | – | –
O=C(NCc1ccc(S(=O)(=O)c2cccc3c2OCO3)cc1)c1cnc2nccn2c1 [N-{[4-(2H-1,3-benzodioxole-4-sulfonyl)phenyl]methyl}imidazo[1,2-a]pyrimidine-6-carboxamide] | 2.9 | 93.3 | – | –
O=C(NCc1ccc(S(=O)(=O)c2cccc3c2OCO3)cc1)c1cc2ccncc2s1 [N-{[4-(2H-1,3-benzodioxole-4-sulfonyl)phenyl]methyl}thieno[2,3-c]pyridine-2-carboxamide] | 3.3 | 7.2 | – | –
O=C(NCc1ccc(S(=O)(=O)c2ccc3c(c2)OCO3)cc1)c1cnc2[nH]ncc2c1 [N-{[4-(2H-1,3-benzodioxole-5-sulfonyl)phenyl]methyl}-1H-pyrazolo[3,4-b]pyridine-5-carboxamide] | 48.2 | 7.4 | – | –
